According to patent US5444057A, “Carbapenem-antibiotic compounds” (Zeneca Limited, priority 1992, dated 1995):
≈ marks a conversion by molar mass, not a printed value.

What was measured:
[1] = system: Enterobacter cloacae P99-; experiment: MIC by agar dilution, Enterobacter cloacae P99-; type: cell-based
Source text: (§1) The antibacterial activity is described in terms of the minimum inhibitory concentration (MIC) determined by the agar-dilution technique with an inoculum size of 10^4 CFU/spot.

B. fragilis AMP S = experiment: MIC by agar dilution, B. fragilis AMP S; type: cell-based; conditions: Bacteroides fragilis, Diagnostic Sensitivity Test, inoculum 10^4 CFU/spot
Source text: as §1

E. coli DCO = experiment: MIC by agar dilution, E. coli DCO; type: cell-based; conditions: Escherichia coli, Diagnostic Sensitivity Test, inoculum 10^4 CFU/spot
Source text: as §1

S. aureus Oxford = experiment: MIC by agar dilution, S. aureus Oxford; type: cell-based; conditions: Staphylococcus aureus, Diagnostic Sensitivity Test, inoculum 10^4 CFU/spot
Source text: as §1

P. morganii I + 001 = experiment: MIC by agar dilution, P. morganii I + 001; type: cell-based; conditions: Morganella morganii, Diagnostic Sensitivity Test, inoculum 10^4 CFU/spot
Source text: as §1

bacteria = conditions: cited from earlier work

SMILES	MIC [1]	MIC (B. fragilis AMP S)	MIC (E. coli DCO)	MIC (S. aureus Oxford)	MIC (P. morganii I + 001)	antibacterial activity (bacteria)
C[C@@H](O)[C@H]1C(=O)N2C(C(=O)O)=C(S[C@@H]3CN[C@H](C(=O)Nc4ccc(C(=O)O)cn4)C3)[C@H](C)[C@H]12 [Example 4, (1R,5R,6S,8S,2'S,4'S)-2-(2-(5-Carboxy-2-pyridylcarbamoyl)pyrrolidin-4-ylthio)-6-(1-hydroxyethyl)-1-methylcarbapenem-3-carboxylic acid]	0.02 µg/mL (≈ 0.042 µM)	0.25 µg/mL (≈ 0.525 µM)	0.02 µg/mL (≈ 0.042 µM)	0.13 µg/mL (≈ 0.273 µM)	0.02 µg/mL	
C[C@@H](O)[C@H]1C(=O)N2C(C(=O)O)=C(SCCN=CN)C[C@H]12 [imipenem, N-formimidoyl thienamycin]						broad spectrum of antibacterial activity
